Relative viability data for five cell lines are collected here from the supplement of paper PMC10307832.

Common to all, as to assay: relative viability (nuclei count vs DMSO), 5 days (fraction); higher = more cells survive
Compound in assay [1]: COc1cc2nc(N3CCCN(C)CC3)nc(NC3CCN(Cc4ccccc4)CC3)c2cc1OC + O=C(c1cc(Cc2n[nH]c(=O)c3ccccc23)ccc1F)N1CCN(C(=O)C2CC2)CC1 [Olaparib] (partner 8 µM)
In outline:
(§1)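 Each reported value is a median over duplicate plates. It expresses relative viability: treated-well nuclei count divided by vehicle-well nuclei count. Lung cancer cell lines in 1536-well plates were dosed by pin tool a day after seeding, alone with one drug or with a fixed anchor-drug dose plus five library-drug doses (not always all listed) in √10 steps, and nuclei were counted after 5 days.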

Compound in assay [2]: Cc1cc([C@@H](C)Nc2ccccc2C(=O)O)c2nc(N3CCOCC3)cc(=O)n2c1 [AZD6482] + CC(=O)Nc1cccc(-n2c(=O)n(C3CC3)c(=O)c3c(Nc4ccc(I)cc4F)n(C)c(=O)c(C)c32)c1 [Trametinib] (partner 0.02 µM)
In short, it runs like this:
as §1

Compound in assay [3]: Cc1cc([C@@H](C)Nc2ccccc2C(=O)O)c2nc(N3CCOCC3)cc(=O)n2c1 [AZD6482] + C[C@@H](Oc1cc(-c2cnn(C3CCNCC3)c2)cnc1N)c1c(Cl)ccc(F)c1Cl [Crizotinib] (partner 1 µM)
In outline: as §1

Compound in assay [4]: Cc1cc([C@@H](C)Nc2ccccc2C(=O)O)c2nc(N3CCOCC3)cc(=O)n2c1 [AZD6482] + COc1cccc2cc(-c3nc([C@H]4CC[C@H](C(=O)O)CC4)n4ncnc(N)c34)[nH]c12 [OSI-027] (partner 0.5 µM)
In outline:
as §1

On to LXF-289, for which the relative viability in assay [1] (first compound 0.2 µM) worked out at 1.03; in assay [1] (first compound 0.6325 µM) it was 1.07; in assay [1] (first compound 2 µM), 1.12; in assay [1] (first compound 6.325 µM), 1.05; in assay [2] (first compound 0.08 µM), 0.681; in assay [2] (first compound 0.253 µM), 0.77. Also, the relative viability amounted to 0.801 in assay [2] (first compound 0.8 µM); 0.717 in assay [2] (first compound 2.53 µM); 0.609 in assay [2] (first compound 8 µM); 0.813 in assay [3] (first compound 0.08 µM); 0.837 in assay [3] (first compound 0.253 µM); 0.898 in assay [3] (first compound 0.8 µM). In addition, the relative viability is 0.794 in assay [3] (first compound 2.53 µM); 0.736 in assay [3] (first compound 8 µM); 0.825 in assay [4] (first compound 0.08 µM); 0.643 in assay [4] (first compound 0.253 µM); 0.772 in assay [4] (first compound 0.8 µM); 0.559 in assay [4] (first compound 2.53 µM). Also, the relative viability in assay [4] (first compound 8 µM) came to 0.615.

NCI-H650: the relative viability in assay [1] (first compound 0.2 µM) amounted to 0.445; in assay [1] (first compound 0.6325 µM), 0.356; in assay [1] (first compound 2 µM), 0.434; in assay [1] (first compound 6.325 µM), 0.396; in assay [2] (first compound 0.08 µM), 0.958; in assay [2] (first compound 0.253 µM), 0.906. Further, the relative viability came to 0.805 in assay [2] (first compound 0.8 µM); 0.663 in assay [2] (first compound 2.53 µM); 0.711 in assay [2] (first compound 8 µM); 0.635 in assay [3] (first compound 0.08 µM); 0.786 in assay [3] (first compound 0.8 µM); 0.442 in assay [3] (first compound 2.53 µM). Besides, the relative viability in assay [3] (first compound 8 µM) stood at 0.47; in assay [4] (first compound 0.08 µM), 0.588; in assay [4] (first compound 0.8 µM) it was 0.457; in assay [4] (first compound 2.53 µM) it was 0.305; in assay [4] (first compound 8 µM) it was 0.356.

In the case of NCI-H1650, the relative viability in assay [1] (first compound 0.2 µM) stood at 0.773; in assay [1] (first compound 0.6325 µM) it was 0.787; in assay [1] (first compound 2 µM) it was 0.886; in assay [1] (first compound 6.325 µM), 0.648; in assay [2] (first compound 0.08 µM) it was 0.62; in assay [2] (first compound 0.253 µM), 0.455. The relative viability came out at 0.614 in assay [2] (first compound 0.8 µM); 0.546 in assay [2] (first compound 2.53 µM); 0.527 in assay [2] (first compound 8 µM); 0.907 in assay [3] (first compound 0.08 µM); 0.958 in assay [3] (first compound 0.8 µM); 0.662 in assay [3] (first compound 2.53 µM). Moreover, the relative viability in assay [3] (first compound 8 µM) is 0.653; in assay [4] (first compound 0.08 µM) it was 0.536; in assay [4] (first compound 0.253 µM) it was 0.636; in assay [4] (first compound 0.8 µM), 0.569; in assay [4] (first compound 2.53 µM), 0.347; in assay [4] (first compound 8 µM), 0.447.

In the case of NCI-H2085, the relative viability was found to be 0.775 in assay [1] (first compound 0.2 µM); 0.82 in assay [1] (first compound 0.6325 µM); 0.869 in assay [1] (first compound 2 µM); 0.785 in assay [1] (first compound 6.325 µM); 0.266 in assay [2] (first compound 0.08 µM); 0.231 in assay [2] (first compound 0.253 µM). Moreover, the relative viability in assay [2] (first compound 0.8 µM) amounted to 0.218; in assay [2] (first compound 2.53 µM) it was 0.223; in assay [2] (first compound 8 µM), 0.218; in assay [3] (first compound 0.08 µM) it was 0.818; in assay [3] (first compound 0.253 µM) it was 0.537; in assay [3] (first compound 0.8 µM), 0.519. For the same cell line, the relative viability in assay [3] (first compound 2.53 µM) was found to be 0.316; in assay [3] (first compound 8 µM) it was 0.358; in assay [4] (first compound 0.08 µM), 0.523; in assay [4] (first compound 0.253 µM), 0.478; in assay [4] (first compound 0.8 µM) it was 0.473; in assay [4] (first compound 2.53 µM), 0.28. For the same cell line, in assay [4] (first compound 8 µM), the relative viability is 0.331.

LC-2-ad: the relative viability in assay [1] (first compound 0.2 µM) came to 0.778; in assay [1] (first compound 0.6325 µM), 0.728; in assay [1] (first compound 2 µM), 0.72; in assay [1] (first compound 6.325 µM), 0.701; in assay [2] (first compound 0.08 µM), 0.864; in assay [2] (first compound 0.253 µM), 0.886. In addition, the relative viability in assay [2] (first compound 0.8 µM) was found to be 0.942; in assay [2] (first compound 2.53 µM) it was 0.798; in assay [2] (first compound 8 µM) it was 0.614; in assay [3] (first compound 0.08 µM), 0.434; in assay [3] (first compound 0.8 µM), 0.476; in assay [3] (first compound 2.53 µM) it was 0.404. Also, the relative viability in assay [3] (first compound 8 µM) is 0.367; in assay [4] (first compound 0.08 µM), 0.734; in assay [4] (first compound 0.253 µM), 0.757; in assay [4] (first compound 0.8 µM), 0.807; in assay [4] (first compound 2.53 µM), 0.581; in assay [4] (first compound 8 µM), 0.565.
